By IC50 is commonly meant the concentration at which inhibition is half-maximal.

T1 sequence (P21554 whole entry): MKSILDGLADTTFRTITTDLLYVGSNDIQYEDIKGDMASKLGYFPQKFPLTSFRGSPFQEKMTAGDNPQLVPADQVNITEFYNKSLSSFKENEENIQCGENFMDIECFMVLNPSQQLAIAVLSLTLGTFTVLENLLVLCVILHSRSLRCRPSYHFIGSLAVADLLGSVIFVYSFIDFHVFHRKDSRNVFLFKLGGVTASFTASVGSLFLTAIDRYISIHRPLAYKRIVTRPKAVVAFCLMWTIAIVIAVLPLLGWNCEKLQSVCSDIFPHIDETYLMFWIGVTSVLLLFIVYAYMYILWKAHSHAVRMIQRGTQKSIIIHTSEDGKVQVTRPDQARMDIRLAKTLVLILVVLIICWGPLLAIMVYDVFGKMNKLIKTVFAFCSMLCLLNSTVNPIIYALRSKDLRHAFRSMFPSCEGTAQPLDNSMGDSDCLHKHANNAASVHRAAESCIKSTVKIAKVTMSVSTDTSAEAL

One assay concerns the target T1, human cannabis CB1 receptor (Homo sapiens, UniProt P21554).
T1 construct: expressed in transfected cells; host or cells: human embryonic kidney (HEK) cells, Semliki Forest Virus system, membrane preparation
Description: Affinity for cannabinoid CB1 receptors, [3H]-CP-55,940 radioligand binding on HEK cell membranes. Particulars: affinity for the CB1 receptor, [3H]-CP-55,940, HEK membranes. How it is done:
The affinity of the compounds of the invention for cannabinoid CB1 receptors was determined using membrane preparations of human embryonic kidney (HEK) cells in which the human cannabis CB1 receptor is transiently transfected using the Semliki Forest Virus system in conjunction with [3H]-CP-55,940 as radioligand. After incubation of a freshly prepared cell membrane preparation with the [3H]-ligand, with or without addition of compounds of the invention, separation of bound and free ligand was performed by filtration over glassfiber filters. Radioactivity on the filter was measured by liquid scintillation counting.
For `Cc1cc(Cl)ccc1N(C(=O)c1ccc(Cl)cc1Cl)c1nc2ccccc2s1` [Example 8, N-Benzothiazol-2-yl-2,4-dichloro-N-(4-chloro-2-methyl-phenyl)-benzamide], the IC50 was 0.73 µM.
On to `COc1ccc(N(C(=O)c2ccc(Cl)cc2Cl)c2nc3ccc(NC(=O)Cc4ccccc4)cc3s2)cc1OC` [Example 52, 2,4-Dichloro-N-(3,4-dimethoxy-phenyl)-N-(6-phenylacetylamino-benzothiazol-2-yl)-benzamide], for which the half-maximal inhibitory concentration (IC50) stood at 1.59 µM.
Turning to `COc1ccc(N(C(=O)c2ccc(Cl)cc2Cl)c2nc3ccc(N)cc3s2)cc1OC` [Example 45, N-(6-Amino-benzothiazol-2-yl)-2,4-dichloro-N-(3,4-dimethoxy-phenyl)-benzamide], the IC50 stood at 0.83 µM.
`COc1ccc(N(C(=O)c2ccc([N+](=O)[O-])cc2Cl)c2nc3ccccc3s2)cc1` [Example 12, N-Benzothiazol-2-yl-2-chloro-N-(4-methoxy-phenyl)-4-nitro-benzamide] displayed an IC50 of 2.48 µM.
The molecule `COc1ccc(N(C(=O)c2ccc(C(F)(F)F)cc2F)c2nc3ccccc3s2)cc1` [Example 9, N-Benzothiazol-2-yl-2-fluoro-N-(4-methoxy-phenyl)-4-trifluoromethyl-benzamide] returned an IC50 of 1.96 µM.
As to `COc1ccc(N(C(=O)c2ccccc2Cl)c2nc3ccc(NS(=O)(=O)N(C)C)cc3s2)cc1OC` [Example 57, N-[6-(Dimethylamino-1-sulfonylamino)-benzothiazol-2-yl]-2-chloro-N-(3,4-dimethoxy-phenyl)-benzamide], the IC50 stood at 1.42 µM.
For `CCN(CC)c1ccc(N(C(=O)c2ccc([N+](=O)[O-])cc2Cl)c2nc3ccccc3s2)cc1` [Example 28, N-Benzothiazol-2-yl-2-chloro-N-(4-diethylamino-phenyl)-4-nitro-benzamide], the IC50 is 1.38 µM.

Tested on in another assay: not given
Assay: not given
The settings on record: doses of 5, 10 and 20 mg daily; cited from earlier work.
For the molecule `Cc1c(C(=O)NN2CCCCC2)nn(-c2ccc(Cl)cc2Cl)c1-c1ccc(Cl)cc1` [SR141716A], the “body weight compared to placebo” value is “significantly reduced body weight”.

The values above are taken from patent US7297707B2, “Benzothiazolyl derivatives” (Hoffmann-La Roche Inc., priority 2003, dated 2007).
